Structures are written as SMILES. Some results are limits rather than exact numbers.

In test [1] the test system is HCT116 MTAP KO cells. Nature of the test: Inhibitory activity against cell proliferation (CellTiter Glo, 6 days), HCT116 MTAP KO. It counts as cell-based. As to conditions: for IC50: Homo sapiens, HCT-116, 144 h, HCT116 MTAP KO cells, 6 days, CellTiter Glo, read-out: HCT116 MTAP KO IC50; for Selectivity HCT 116-WT/ HCT116 MTAP KO: ratio of IC50 HCT116-WT / HCT116 MTAP KO. In outline:
(§1)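 Following overnight attachment of 250 cells per well in McCoy's 5A medium with 10% FBS, compounds spanning 8 concentrations (4-fold, top 10000 nM) were applied for 6 days. Growth inhibition IC50 was derived from luminescent ATP signal.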

In test [2] the target is PRMT5-MTA (Homo sapiens, UniProt O14744). Nature of the test: Enzymatic inhibitory activity against PRMT5-MTA (AlphaScreen). It counts as biochemical. As to conditions: read-out: IC50. In outline: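 PRMT5/[…] (1 nM) was preincubated for 30 min at room temperature with 1 µM […] and 2.5 µM SAM, then exposed to compound (10-point, 3-fold from 1000 nM) for 15 min at 23 °C. Histone H4 substrate (5 nM) was added and reacted for 45 min at 23 °C. Symmetric dimethyl-R3 H4 was detected by AlphaScreen and IC50 calculated.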
(In general: Alpha assays give light when donor and acceptor beads are brought close together.)

Test [3] deals with HCT116-WT cells. As to the kind of experiment: Inhibitory activity against cell proliferation (CellTiter Glo, 6 days), HCT116-WT. It is filed as cell-based. As to conditions: 144 h, HCT116-WT cells, 6 days, CellTiter Glo; read-out: HCT116-WT IC50. In outline: as §1
For orientation: Cellular ATP, detected with luciferase, serves as a proxy for viable cell number.

Chain of PRMT5-MTA (O14744 whole entry): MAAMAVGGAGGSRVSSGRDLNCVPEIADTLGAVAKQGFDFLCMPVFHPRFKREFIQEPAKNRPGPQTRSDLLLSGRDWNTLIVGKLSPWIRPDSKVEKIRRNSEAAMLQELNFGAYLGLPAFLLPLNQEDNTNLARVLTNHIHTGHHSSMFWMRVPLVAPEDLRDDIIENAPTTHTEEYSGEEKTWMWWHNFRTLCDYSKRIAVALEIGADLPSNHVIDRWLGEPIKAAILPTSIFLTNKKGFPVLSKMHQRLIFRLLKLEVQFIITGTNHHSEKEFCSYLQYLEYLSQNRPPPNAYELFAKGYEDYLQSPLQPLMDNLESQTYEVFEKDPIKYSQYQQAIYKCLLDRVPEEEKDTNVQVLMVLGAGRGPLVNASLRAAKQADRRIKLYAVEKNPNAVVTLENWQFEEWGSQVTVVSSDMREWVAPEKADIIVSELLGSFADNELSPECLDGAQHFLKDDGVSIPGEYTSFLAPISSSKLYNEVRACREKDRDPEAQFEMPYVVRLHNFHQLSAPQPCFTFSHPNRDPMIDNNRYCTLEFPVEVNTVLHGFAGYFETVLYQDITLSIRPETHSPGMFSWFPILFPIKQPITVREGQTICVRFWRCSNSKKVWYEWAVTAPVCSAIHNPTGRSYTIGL
Chain of PRMT5-MTA (Q9BQA1 whole entry partner): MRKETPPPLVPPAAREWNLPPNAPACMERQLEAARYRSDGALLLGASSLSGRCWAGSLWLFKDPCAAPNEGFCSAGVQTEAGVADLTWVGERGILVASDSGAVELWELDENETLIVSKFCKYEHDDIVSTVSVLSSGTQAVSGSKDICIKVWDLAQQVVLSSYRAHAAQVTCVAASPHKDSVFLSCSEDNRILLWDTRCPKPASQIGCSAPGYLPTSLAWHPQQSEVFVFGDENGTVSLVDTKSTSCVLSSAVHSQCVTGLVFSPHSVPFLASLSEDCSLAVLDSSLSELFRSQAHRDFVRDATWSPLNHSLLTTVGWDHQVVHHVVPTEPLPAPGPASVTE

Take `Cc1cc2cc(C(=O)N(Cc3ccc(-c4nncs4)cn3)N(C)c3ncccn3)ccc2nc1N` [Example 229, N-((5-(1,3,4-thiadiazol-2-yl)pyridin-2-yl)methyl)-2-amino-N',3-dimethyl-N'-(pyrimidin-2-yl)quinoline-6-carbohydrazide]: the concentration for half-maximal inhibition (IC50) in test [1] was found to be 14 nM; in test [2] it was 3.7 nM; in test [3], 670 nM. Moreover, in test [1], the “Selectivity HCT 116-WT/ HCT116 MTAP KO” value is reported as 47.86.

On to `Cc1cc2cc(C(=O)N(Cc3ccc(Br)cn3)N(c3ncccn3)C3CC3)ccc2nc1N` [Example 82, 2-amino-N-((5-bromopyridin-2-yl)methyl)-N'-cyclopropyl-3-methyl-N'-(pyrimidin-2-yl)quinoline-6-carbohydrazide], for which the IC50 was found to be 16 nM in test [1], 2.2 nM in test [2] and 282 nM in test [3]. Also, the “Selectivity HCT 116-WT/ HCT116 MTAP KO” value in test [1] turned out to be 17.63.

Turning to `Nc1nc2ccc(C(=O)N(Cc3ccc(C(F)(F)F)cn3)N(c3ncccn3)C3CC3)cc2cc1CO` [Example 320, 2-amino-N'-cyclopropyl-3-(hydroxymethyl)-N'-(pyrimidin-2-yl)-N-((5-(trifluoromethyl)pyridin-2-yl)methyl)quinoline-6-carbohydrazide], the IC50 in test [1] was 102 nM; in test [2], 5.5 nM; in test [3], 2520 nM. Moreover, the “Selectivity HCT 116-WT/ HCT116 MTAP KO” value in test [1] amounted to 24.70.

Regarding `CN(c1ncccn1)N(Cc1ccc(C(F)(F)F)cn1)C(=O)c1ccc2nc(N)c3ccncc3c2c1` [Example 78, 5-amino-N'-methyl-N'-(pyrimidin-2-yl)-N-((5-(trifluoromethyl)pyridin-2-yl)methyl)benzo[c][2,6]naphthyridine-9-carbohydrazide], the results for the IC50 in test [1], in test [2] and in test [3] were 14 nM, 2 nM and 169 nM, respectively. Moreover, the “Selectivity HCT 116-WT/ HCT116 MTAP KO” value in test [1] came out at 12.07.

In the case of `Cc1cc2cc(C(=O)N(Cc3ccc(-c4cnn(CC(F)(F)F)c4)cn3)N(C)c3ncccn3)ccc2nc1N` [Example 181, 2-amino-N',3-dimethyl-N'-(pyrimidin-2-yl)-N-((5-(1-(2,2,2-trifluoroethyl)-1H-pyrazol-4-yl)pyridin-2-yl)methyl)quinoline-6-carbohydrazide], the IC50 in test [1] turned out to be 36 nM; in test [2], 0.69 nM; in test [3] it was 865 nM. The “Selectivity HCT 116-WT/ HCT116 MTAP KO” value in test [1] worked out at 24.03.

On to `Cc1cc2nc(N)c3cnn(C)c3c2cc1C(=O)N(C)N1CCc2cccnc21` [Example 112, 4-amino-N-(2,3-dihydro-1H-pyrrolo[2,3-b]pyridin-1-yl)-N,1,7-trimethyl-1H-pyrazolo[4,3-c]quinoline-8-carboxamide], for which the IC50 in test [1] is 360 nM; in test [2], 1.9 nM; in test [3], more than 10000 nM.

`CC1CN(C(=O)c2cc3c(cc2F)nc(N)c2cnn(C)c23)N(c2ncccc2F)C1` (stereo not drawn) [Example 393, (4-amino-7-fluoro-1-methyl-1H-pyrazolo [4,3-c]quinolin-8-yl)(2-(3-fluoropyridin-2-yl)-4-methylpyrazolidin-1-yl)methanone]: the figures for the IC50 in test [1], in test [2] and in test [3] were 9.8 nM, 3.4 nM and 502 nM, respectively. For the same molecule, in test [1], the “Selectivity HCT 116-WT/ HCT116 MTAP KO” value came to 51.22.

Turning to `Cn1ncc2c(N)nc3cc(Cl)c(C(=O)N4CC(C)(F)CN4c4ncc(F)cc4F)cc3c21` (stereo not drawn) [Example 424, (4-amino-7-chloro-1-methyl-1H-pyrazolo [4,3-c]quinolin-8-yl)(2-(3,5-2 fluoropyridin-2-yl)-4-fluoro-4-methylpyrazolidin-1-yl)methanone], the results for the concentration for half-maximal inhibition (IC50) in test [1], in test [2] and in test [3] were 23 nM, 7.3 nM and 374 nM, respectively. Moreover, the “Selectivity HCT 116-WT/ HCT116 MTAP KO” value in test [1] is reported as 16.26.

As for `Cc1cc2cc(C(=O)N(Cc3ccc(N4CC(F)(F)C4)cn3)N(C)c3ncccn3)ccc2nc1N` [Compound 225, 2-amino-N-((5-(3,3-difluoroazetidin-1-yl)pyridin-2-yl)methyl)-N',3-dimethyl-N'-(pyrimidin-2-yl)quinoline-6-carbohydrazide], the values for the IC50 in test [1], in test [2] and in test [3] were 204 nM, 16 nM and 2650 nM, respectively. The “Selectivity HCT 116-WT/ HCT116 MTAP KO” value in test [1] is listed as 13.00.

Take `Cc1cc2cc(C(=O)N(Cc3ccc(-c4scnc4C)cn3)N(C)c3nccc4nccnc34)ccc2nc1N` [Example 185, 2-amino-N',3-dimethyl-N-((5-(4-methylthiazol-5-yl)pyridin-2-yl)methyl)-N'-(pyrido[3,4-b]pyrazin-5-yl)quinoline-6-carbohydrazide]: the figures for the IC50 in test [1], in test [2] and in test [3] were 7.5 nM, 4.7 nM and 128 nM, respectively. For the same molecule, in test [1], the “Selectivity HCT 116-WT/ HCT116 MTAP KO” value is on record as 17.07.

In the case of `Cc1cc2cc(C(=O)N(Cc3ccc(-c4cnn(C)c4)cn3)N(C)c3nccc4nccnc34)ccc2nc1N` [Example 162, 2-amino-N',3-dimethyl-N-((5-(1-methyl-1H-pyrazol-4-yl)pyridin-2-yl)methyl)-N'-(pyrido[3,4-b]pyrazin-5-yl)quinoline-6-carbohydrazide], the 50% inhibitory concentration (IC50) in test [1] amounted to 36 nM; in test [2] it was 5.4 nM; in test [3] it was 850 nM. In addition, in test [1], the “Selectivity HCT 116-WT/ HCT116 MTAP KO” value is 23.61.

Regarding `Cc1cc2nc(N)c3cnn(C)c3c2cc1C(=O)N1CC(C)CN1c1ncccc1Cl` (stereo not drawn) [Example 369, (4-amino-1,7-dimethyl-1H-pyrazolo[4,3-c]quinolin-8-yl)(2-(3-chloropyridin-2-yl)-4-methylpyrazolidin-1-yl)methanone], the IC50 amounted to 84 nM in test [1], 3.9 nM in test [2] and 2700 nM in test [3]. Besides, the “Selectivity HCT 116-WT/ HCT116 MTAP KO” value in test [1] stood at 32.12.

For `Cc1cc2cc(C(=O)N(Cc3ccc(-c4ccccn4)cn3)N(C)c3ncccn3)ccc2nc1N` [Example 141, N-([2,3'-bipyridine]-6'-ylmethyl)-2-amino -N',3-dimethyl-N'-(pyrimidin-2-yl)quino line-6-carbohydrazide], the 50% inhibitory concentration (IC50) in test [1] turned out to be 76 nM; in test [2], 2.3 nM; in test [3], 2030 nM. Further, the “Selectivity HCT 116-WT/ HCT116 MTAP KO” value in test [1] is 26.76.

As for `Cc1cc2nc(N)c3cnn(C)c3c2cc1C(=O)N1CC(C)(O)CN1c1ncccc1F` (stereo not drawn) [Example 427, (4-amino-1,7-dimethyl-1H-pyrazolo[4,3-c]quinolin-8-yl)(2-(3-fluoropyridin-2-yl)-4-hydroxy-4-methylpyrazolin-1-yl)methanone], the concentration for half-maximal inhibition (IC50) in test [1] was 235 nM; in test [2] it was 6.2 nM; in test [3], more than 10000 nM. Moreover, the “Selectivity HCT 116-WT/ HCT116 MTAP KO” value in test [1] is more than 42.55.

With `Cc1cc2cc(C(=O)N(Cc3ccc(C(F)(F)F)cn3)N(C)c3ncccc3Cl)ccc2nc1N` [Example 66, 2-amino-N'-(3-chloropyridin-2-yl)-N',3-d imethyl-N-((5-(trifluoromethyl)pyridin-2-yl)methyl)quinoline-6-carbohydrazide], the IC50 was 124 nM in test [1], 3.9 nM in test [2] and 1990 nM in test [3]. Moreover, in test [1], the “Selectivity HCT 116-WT/ HCT116 MTAP KO” value amounted to 16.06.

As for `Cc1cc2cc(C(=O)N(Cc3ccc(-c4cnn(CF)c4)cn3)N(C)c3ncccn3)ccc2nc1N` [Example 233, 2-amino-N-((5-(1-(fluoromethyl)-1H-pyrazol-4-yl)pyridin-2-yl)methyl)-N',3-dimet hyl-N'-(pyrimidin-2-yl)quinoline-6-carbo hydrazide], the half-inhibitory concentration (IC50) in test [1] was 39 nM; in test [2], 4.4 nM; in test [3], 1020 nM. In addition, the “Selectivity HCT 116-WT/ HCT116 MTAP KO” value in test [1] is listed as 26.28.

Broadly, the IC50 is the concentration that inhibits the measured activity by half.

The values are drawn from patent EP4745134A1 (Jiangsu Yahong Meditech Co., Ltd., priority 2023, dated 2025).
